Patent US20040224953A1, “Fused bicyclic-substituted amines as histamine-3 receptor ligands” (priority 2003, published 2004)

melting point: 70 to 72 °C
Structure (SMILES): C[C@@H]1CCCN1CCc1nc2cc(-c3ccc(C#N)cc3)ccc2o1 [Example 24E, 4-{2-[2-(2-(R)-methyl-pyrrolidin-1-yl)-ethyl]-benzooxazol-5-yl}-benzonitrile]
